Measurements as given in the supplement of paper PMC10307832.

Tests used:
Assay in all cases: relative viability (nuclei count vs DMSO), 5 days (fraction); higher = more cells survive
[1] = compound: CCN1C(=O)C2=CC(=C(N=C2N(C1=O)C3CC3)N)C(=O)N + O=C(c1cc(Cc2n[nH]c(=O)c3ccccc23)ccc1F)N1CCN(C(=O)C2CC2)CC1 [Olaparib] (partner 8 µM)
In short: (§1)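 For relative viability, nuclei counts in treated wells were divided by those in vehicle wells. Lung cancer cell lines had been pin-tool dosed in 1536-well plates the day after seeding and cultured for 5 days, then fixed and stained in one step (final 0.05% Triton X-100, 1% formaldehyde, 1 ug/ml Hoechst) and imaged at 4×. Doses were one drug alone or a fixed anchor-drug dose plus five library-drug doses (not always all listed) in √10 steps, and values are duplicate-plate medians.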

[2] = compound: CCN1C(=O)C2=CC(=C(N=C2N(C1=O)C3CC3)N)C(=O)N + C[C@@H](Oc1cc(-c2cnn(C3CCNCC3)c2)cnc1N)c1c(Cl)ccc(F)c1Cl [Crizotinib] (partner 1 µM)
In short: as §1

[3] = compound: CCN1C(=O)C2=CC(=C(N=C2N(C1=O)C3CC3)N)C(=O)N + Nc1nc2[nH]cc(CCc3ccc(C(=O)N[C@@H](CCC(=O)O)C(=O)O)cc3)c2c(=O)[nH]1 [Pemetrexed] (partner 0.2 µM)
In short: as §1

[4] = compound: CCN1C(=O)C2=CC(=C(N=C2N(C1=O)C3CC3)N)C(=O)N + CC(=O)Nc1cccc(-n2c(=O)n(C3CC3)c(=O)c3c(Nc4ccc(I)cc4F)n(C)c(=O)c(C)c32)c1 [Trametinib] (partner 0.02 µM)
In short: as §1

[5] = compound: CCN1C(=O)C2=CC(=C(N=C2N(C1=O)C3CC3)N)C(=O)N + C[C@]1(O)C[C@@H](c2nc(-c3ccc4ccc(-c5ccccc5)nc4c3)c3c(N)nccn32)C1 [Linsitinib] (partner 1 µM)
In short: as §1

Row | Cell Line | relative viability ([1]; first compound 0.253 µM) | relative viability ([1]; first compound 0.8 µM) | relative viability ([1]; first compound 2.53 µM) | relative viability ([1]; first compound 8 µM) | relative viability ([2]; first compound 0.253 µM) | relative viability ([2]; first compound 0.8 µM) | relative viability ([2]; first compound 2.53 µM) | relative viability ([2]; first compound 8 µM) | relative viability ([3]; first compound 0.253 µM) | relative viability ([3]; first compound 0.8 µM) | relative viability ([3]; first compound 2.53 µM) | relative viability ([3]; first compound 8 µM) | relative viability ([4]; first compound 0.253 µM) | relative viability ([4]; first compound 0.8 µM) | relative viability ([4]; first compound 2.53 µM) | relative viability ([4]; first compound 8 µM) | relative viability ([5]; first compound 0.253 µM) | relative viability ([5]; first compound 0.8 µM) | relative viability ([5]; first compound 2.53 µM) | relative viability ([5]; first compound 8 µM)
1 | NCI-H23 | 0.325 | 0.292 | 0.336 | 0.332 | 0.387 | 0.561 | 0.396 | 0.532 | 0.785 | 0.734 | 0.677 | 0.634 | 0.385 | 0.416 | 0.365 | 0.391 | 0.602 | 0.61 | 0.56 | 0.565
2 | NCI-H322M | 0.855 | 0.785 | 0.753 | 0.822 | 0.814 | 0.872 | 0.887 | 0.943 | 0.632 | 0.541 | 0.634 | 0.6 | 0.522 | 0.457 | 0.469 | 0.586 | 0.89 | 0.9 | 0.865 | 0.914
3 | NCI-H358 | 0.584 | 0.61 | 0.578 | 0.581 | 0.642 | 0.551 | 0.525 | 0.774 | 0.172 | 0.181 | 0.188 | 0.164 | 0.121 | 0.134 | 0.144 | 0.138 | 0.718 | 0.852 | 0.682 | 0.808
4 | NCI-H441 | 0.559 | 0.578 | 0.499 | 0.649 | 0.706 | 0.654 | 0.773 | 0.781 | 0.272 | 0.246 | 0.263 | 0.26 | 0.508 | 0.441 | 0.516 | 0.532 | 0.49 | 0.545 | 0.697 | 0.53
5 | NCI-H460 | 0.432 | 0.364 | 0.433 | 0.445 | 0.943 | 0.969 | 0.684 | 0.986 | 0.0628 | 0.0522 | 0.0677 | 0.0646 | 0.226 | 0.13 | 0.13 | 0.13 | 0.927 | 0.806 | 0.71 | 0.71
6 | NCI-H520 | 0.335 | 0.341 | 0.356 | 0.3 | 0.698 | 0.64 | 0.645 | 1.29 | 0.635 | 0.64 | 0.703 | 0.657 | 0.65 | 0.692 | 0.657 | 0.676 | 0.938 | 0.951 | 0.961 | 1.11
7 | NCI-H596 | 0.662 | 0.72 | 0.767 | 0.693 | 1.05 | 0.984 | 1.08 | 0.948 | 0.465 | 0.507 | 0.573 | 0.497 | 0.673 | 0.742 | 0.787 | 0.907 | 0.991 | 1.11 | 0.926 | 1.18
8 | NCI-H647 | 0.56 | 0.484 | 0.586 | 0.741 | 0.869 | 0.906 | 0.948 | 1.26 | 0.174 | 0.205 | 0.157 | 0.185 | 0.521 | 0.442 | 0.418 | 0.389 | 1.11 | 0.995 | 1.08 | 1.09
9 | NCI-H650 | 0.437 | 0.39 | 0.296 | 0.445 | 0.832 | 0.721 | 0.615 | 0.716 | 0.962 | 0.782 | 0.954 | 0.978 | 0.994 | 0.929 | 0.905 | 1.04 | 0.949 | 0.636 | 0.957 | 0.697
10 | NCI-H661 | 0.774 | 0.782 | 0.672 | 0.748 | 1.05 | 1.05 | 0.987 | 1.06 | 0.918 | 0.905 | 0.935 | 0.886 | 0.591 | 0.567 | 0.546 | 0.561 | 0.568 | 0.636 | 0.558 | 0.603
11 | NCI-H838 | 0.737 | 0.764 | 0.746 | 0.722 | 0.868 | 0.817 | 0.74 | 0.717 | 0.239 | 0.274 | 0.242 | 0.248 | 0.55 | 0.573 | 0.511 | 0.474 | 1.06 | 0.895 | 0.974 | 0.99
12 | NCI-H1355 | 0.8 | 0.702 | 0.759 | 0.721 | 1.12 | 1.05 | 1.02 | 1.1 | 1.03 | 1 | 1.03 | 0.96 | 0.429 | 0.387 | 0.383 | 0.438 | 0.846 | 0.891 | 0.808 | 0.687
13 | NCI-H1437 | 0.684 | 0.637 | 0.622 | 0.585 | 0.938 | 0.993 | 0.818 | 1.09 | 0.294 | 0.316 | 0.287 | 0.304 | 0.609 | 0.468 | 0.527 | 0.406 | 0.929 | 1.04 | 1.01 | 1.11
14 | NCI-H1651 | 0.223 | 0.177 | 0.202 | 0.186 | 0.892 | 0.884 | 0.858 | 0.868 | 0.582 | 0.608 | 0.588 | 0.597 | 0.784 | 0.835 | 0.778 | 0.819 | 0.953 | 1.1 | 0.902 | 1.04
15 | NCI-H1666 | 0.719 | 0.724 | 0.856 | 0.737 | 1.16 | 0.998 | 0.883 | 1 | 0.844 | 0.879 | 0.812 | 0.799 | 0.906 | 0.778 | 0.83 | 0.815 | 0.805 | 0.766 | 0.792 | 0.779
